Experimental data: US11007136B2, “Cosmetic composition for wrinkle reduction containing gypenoside isolated from Gynostemma pentaphyllum” (CELLTRION INC., priority 2015, dated 2021)

Tested on: human dermal fibroblast neonatal
Test: Procollagen production (collagen synthesis promotion), ELISA kit
Format: cell-based
Conditions: 1 and 5 μg/ml, 48 h, versus positive control NAG at the same concentration, FIG. 3
Method: A human dermal fibroblast neonatal (Cascade Co.) was inoculated into a 24-well microplate (5×10^4 cells/well) by using a medium, in which Dulbeco's Modified Eagle's Medium (DMEM) was supplemented with 10% fetal bovine serum, thus being cultured under a condition of 37° C. and 5% CO2 for 24 hours. Then, the same was replaced with a serum-free DMEM medium and cultured for 24 hours, after which an appropriate amount of a sample fluid was treated so that a final concentration of each test compound could reach 1 μg/ml and 5 μg/ml. After being cultured for 48 hours, a cell culture fluid was collected and then an amount of procollagen was measured by using a collagen measurement kit of Takara Company (Takara Shuzo Co., Ltd.). First of all, the collected cell culture fluid was injected into a 96-well microplate, to which a primary collagen antibody was evenly applied, such that an antigen-antibody reaction could occur at 37° C. for three hours. The cell culture fluid was removed from the well and washed four times with PBS. A color causing material was injected into each well, after which a reaction took place at a room temperature for 15 minutes, such that 1 N sulfuric acid solution was added thereto, thus stopping the reaction. An optical density was measured at a wavelength of 450 nm by means of a spectrophotometer. […]

SMILES | procollagen-producing effect compared with NAG
CC(C)=CC1C[C@](O)([C@H]2CC[C@]3(C)[C@@H]2CC[C@@H]2[C@@]4(C=O)CC[C@H](O[C@@H]5OC[C@H](O)[C@H](O[C@@H]6OC[C@@H](O)[C@H](O)[C@H]6O)[C@H]5O[C@@H]5O[C@@H](C)[C@H](O)[C@@H](O)[C@H]5O)C(C)(C)[C@@H]4CC[C@]23C)[C@H](O)O1 (stereo partly drawn) [Gypenoside UL4, (23ξ)-3β,20β,21α-trihydroxy-19-oxo-21,23-epoxy-dammar-24-ene-3-O-[α-L-rhamnopyranosyl (1→2)][β-D-xylopyranosyl (1→3)]-α-L-arabinopyranoside] | the same or larger amount of procollagen
CC(C)=CC1C[C@](O)([C@H]2CC[C@]3(C)[C@@H]2CC[C@@H]2[C@@]4(C=O)CC[C@H](O[C@@H]5OC[C@H](O)[C@H](O[C@@H]6O[C@H](CO)[C@@H](O)[C@H](O)[C@H]6O)[C@H]5O[C@@H]5O[C@@H](C)[C@H](O)[C@@H](O)[C@H]5O)C(C)(C)[C@@H]4CC[C@]23C)[C@H](O)O1 (stereo partly drawn) [Gypenoside UL5, (23ξ)-3β,20β,21α-trihydroxy-19-oxo-21,23-epoxy-dammar-24-ene-3-O-[α-L-rhamnopyranosyl (1→2)][β-D-glucopyranosyl (1→3)]-α-L-arabinopyranoside] | the same or larger amount of procollagen
